Measurements taken from PubChem BioAssay AID2060492 (Molecular Pharmacology Branch, DTP, NCI, 2025).

System: 695427-040-R-J1-PDC complex spheroids, viability percent T/C
Experiment: Anticancer human tumor 695427-040-R-J1-PDC patient-derived colon adenocarcinoma cell line growth inhibition [GQUAD]
Conditions: for IC50: curve of first compound; for viability, T/C: stronger effect = lower value
In short: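 Multi-cell-type spheroids of tumor cells with HUVEC and mesenchymal stem cells, treated with drug combinations. Concentrations descend in half-log steps from near clinical Cmax, or from 10 microM where Cmax is unknown; viability read-out.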

[1] = second compound 0.0316 µM, first compound 0.0316 µM
[2] = second compound 0.0316 µM, first compound 0.1 µM
[3] = second compound 0.0316 µM, first compound 0.316 µM
[4] = second compound 0.0316 µM, first compound 1 µM
[5] = second compound 0.0316 µM, first compound 3.16 µM
[6] = second compound 0.0316 µM, first compound 10 µM
[7] = second compound 0.1 µM, first compound 0.0316 µM
[8] = second compound 0.1 µM, first compound 0.1 µM
[9] = second compound 0.1 µM, first compound 0.316 µM
[10] = second compound 0.1 µM, first compound 1 µM
[11] = second compound 0.1 µM, first compound 3.16 µM
[12] = second compound 0.1 µM, first compound 10 µM
[13] = second compound 0.316 µM, first compound 0.0316 µM
[14] = second compound 0.316 µM, first compound 0.1 µM
[15] = second compound 0.316 µM, first compound 0.316 µM
[16] = second compound 0.316 µM, first compound 1 µM
[17] = second compound 0.316 µM, first compound 3.16 µM
[18] = second compound 0.316 µM, first compound 10 µM
[19] = second compound 1 µM, first compound 0.0316 µM
[20] = second compound 1 µM, first compound 0.1 µM
[21] = second compound 1 µM, first compound 0.316 µM
[22] = second compound 1 µM, first compound 1 µM
[23] = second compound 1 µM, first compound 3.16 µM
[24] = second compound 1 µM, first compound 10 µM
[25] = second compound 3.16 µM, first compound 0.0316 µM
[26] = second compound 3.16 µM, first compound 0.1 µM
[27] = second compound 3.16 µM, first compound 0.316 µM
[28] = second compound 3.16 µM, first compound 1 µM
[29] = second compound 3.16 µM, first compound 3.16 µM
[30] = second compound 3.16 µM, first compound 10 µM
[31] = second compound 10 µM, first compound 0.0316 µM
[32] = second compound 10 µM, first compound 0.1 µM
[33] = second compound 10 µM, first compound 0.316 µM
[34] = second compound 10 µM, first compound 1 µM
[35] = second compound 10 µM, first compound 3.16 µM
[36] = second compound 10 µM, first compound 10 µM
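Also: spheroids exposed to compounds for seven days before readout.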

`COc1ncnc(C2CC2)c1-c1ncc2cnn(Cc3ccc(-c4nc(C(F)(F)F)cn4C(C)C)cc3)c2n1` + Cc1[nH]c2ccc(F)cc2c1-c1nc2c3cccnc3c3ncccc3c2[nH]1 showed an IC50 (second compound 0.0316 µM) of over 10 µM, an IC50 (second compound 0.1 µM) of over 10 µM and an IC50 (second compound 0.316 µM) of over 10 µM. The IC50 (second compound 1 µM) was over 10 µM, the IC50 (second compound 3.16 µM) was over 10 µM and the IC50 (second compound 10 µM) was over 10 µM. The viability, T/C [1] was 98%, the viability, T/C [2] was 96.7% and the viability, T/C [3] was 92.9%. For the same molecule, the viability, T/C [4] was 106%, the viability, T/C [5] was 112% and the viability, T/C [6] was 70%. For the same molecule, the viability, T/C [7] was 107%, the viability, T/C [8] was 93.9% and the viability, T/C [9] was 98.5%. For the same molecule, the viability, T/C [10] was 98.4%, the viability, T/C [11] was 100% and the viability, T/C [12] was 71%. The viability, T/C [13] was 99.5%, the viability, T/C [14] was 91.9% and the viability, T/C [15] was 94.6%. It also gave a viability, T/C [16] of 106%, a viability, T/C [17] of 105% and a viability, T/C [18] of 65.6%. For the same molecule, the viability, T/C [19] was 91%, the viability, T/C [20] was 86.3% and the viability, T/C [21] was 101%. It also gave a viability, T/C [22] of 96.3%, a viability, T/C [23] of 94.1% and a viability, T/C [24] of 67.8%. The viability, T/C [25] was 76.5%, the viability, T/C [26] was 77.5% and the viability, T/C [27] was 73.3%. The viability, T/C [28] was 80.1%, the viability, T/C [29] was 98.4% and the viability, T/C [30] was 66.5%. For the same molecule, the viability, T/C [31] was 82.2%, the viability, T/C [32] was 73.5% and the viability, T/C [33] was 83.1%. For the same molecule, the viability, T/C [34] was 81.8%, the viability, T/C [35] was 95.4% and the viability, T/C [36] was 73.8%.
Work on `Cc1[nH]c2ccccc2c1CCNCc1ccc(/C=C/C(=O)NO)cc1` + Cc1[nH]c2ccc(F)cc2c1-c1nc2c3cccnc3c3ncccc3c2[nH]1 yielded an IC50 (second compound 0.0316 µM) of over 0.316 µM, an IC50 (second compound 0.1 µM) of over 0.316 µM and an IC50 (second compound 0.316 µM) of over 0.316 µM. The IC50 (second compound 1 µM) was over 0.316 µM, the IC50 (second compound 3.16 µM) was over 0.316 µM and the IC50 (second compound 10 µM) was over 0.316 µM. It also gave a viability, T/C (second compound 0.0316 µM, first compound 0.000999 µM) of 109%, a viability, T/C (second compound 0.0316 µM, first compound 0.00316 µM) of 90% and a viability, T/C (second compound 0.0316 µM, first compound 0.00999 µM) of 101%. It also gave a viability, T/C [1] of 102%, a viability, T/C (second compound 0.0316 µM, first compound 0.0999 µM) of 106% and a viability, T/C [3] of 94.5%. For the same molecule, the viability, T/C (second compound 0.1 µM, first compound 0.000999 µM) was 115%, the viability, T/C (second compound 0.1 µM, first compound 0.00316 µM) was 94.5% and the viability, T/C (second compound 0.1 µM, first compound 0.00999 µM) was 91.1%. The viability, T/C [7] was 93.4%, the viability, T/C (second compound 0.1 µM, first compound 0.0999 µM) was 95.7% and the viability, T/C [9] was 88.6%. It also gave a viability, T/C (second compound 0.316 µM, first compound 0.000999 µM) of 98.8%, a viability, T/C (second compound 0.316 µM, first compound 0.00316 µM) of 84.8% and a viability, T/C (second compound 0.316 µM, first compound 0.00999 µM) of 94.2%. For the same molecule, the viability, T/C [13] was 104%, the viability, T/C (second compound 0.316 µM, first compound 0.0999 µM) was 100% and the viability, T/C [15] was 86.7%. For the same molecule, the viability, T/C (second compound 1 µM, first compound 0.000999 µM) was 94.3%, the viability, T/C (second compound 1 µM, first compound 0.00316 µM) was 88.6% and the viability, T/C (second compound 1 µM, first compound 0.00999 µM) was 96.8%. For the same molecule, the viability, T/C [19] was 93.5%, the viability, T/C (second compound 1 µM, first compound 0.0999 µM) was 98.9% and the viability, T/C [21] was 90.8%. The viability, T/C (second compound 3.16 µM, first compound 0.000999 µM) was 75.2%, the viability, T/C (second compound 3.16 µM, first compound 0.00316 µM) was 78.3% and the viability, T/C (second compound 3.16 µM, first compound 0.00999 µM) was 86%. For the same molecule, the viability, T/C [25] was 74.5%, the viability, T/C (second compound 3.16 µM, first compound 0.0999 µM) was 78% and the viability, T/C [27] was 67.3%. For the same molecule, the viability, T/C (second compound 10 µM, first compound 0.000999 µM) was 74.8%, the viability, T/C (second compound 10 µM, first compound 0.00316 µM) was 77.6% and the viability, T/C (second compound 10 µM, first compound 0.00999 µM) was 71.8%. For the same molecule, the viability, T/C [31] was 75.9%, the viability, T/C (second compound 10 µM, first compound 0.0999 µM) was 74.8% and the viability, T/C [33] was 63.4%.
`O=C(NO)c1cnc(N2CCN(S(=O)(=O)c3ccc4ccccc4c3)CC2)nc1` + Cc1[nH]c2ccc(F)cc2c1-c1nc2c3cccnc3c3ncccc3c2[nH]1 was tested, and the IC50 (second compound 0.0316 µM) was over 10 µM, the IC50 (second compound 0.1 µM) was over 10 µM and the IC50 (second compound 0.316 µM) was over 10 µM. For the same molecule, the IC50 (second compound 1 µM) was over 10 µM, the IC50 (second compound 3.16 µM) was over 10 µM and the IC50 (second compound 10 µM) was over 10 µM. For the same molecule, the viability, T/C [1] was 90.4%, the viability, T/C [2] was 106% and the viability, T/C [3] was 94.3%. For the same molecule, the viability, T/C [4] was 87.5%, the viability, T/C [5] was 78.7% and the viability, T/C [6] was 74.7%. For the same molecule, the viability, T/C [7] was 98.4%, the viability, T/C [8] was 91.1% and the viability, T/C [9] was 83%. It also gave a viability, T/C [10] of 87%, a viability, T/C [11] of 81.3% and a viability, T/C [12] of 68.5%. It also gave a viability, T/C [13] of 99.1%, a viability, T/C [14] of 89.4% and a viability, T/C [15] of 81.9%. For the same molecule, the viability, T/C [16] was 82.6%, the viability, T/C [17] was 80.5% and the viability, T/C [18] was 65.6%. It also gave a viability, T/C [19] of 95%, a viability, T/C [20] of 86% and a viability, T/C [21] of 84.8%. It also gave a viability, T/C [22] of 82%, a viability, T/C [23] of 77.9% and a viability, T/C [24] of 61.5%. It also gave a viability, T/C [25] of 76.5%, a viability, T/C [26] of 71.2% and a viability, T/C [27] of 71.2%. For the same molecule, the viability, T/C [28] was 73.5%, the viability, T/C [29] was 57.3% and the viability, T/C [30] was 54.5%. For the same molecule, the viability, T/C [31] was 69.6%, the viability, T/C [32] was 73.1% and the viability, T/C [33] was 73.8%. The viability, T/C [34] was 60.5%, the viability, T/C [35] was 54.3% and the viability, T/C [36] was 50.5%.
Work on `COc1ccc([C@@H](O)c2cc(-c3ncnc4cc(N5CCOCC5)ccc34)c(F)cc2Cl)nn1` + Cc1cnc(CNC(=O)c2c(=O)c3ccc(N4CCCN(C)CC4)nc3n3c2sc2ccccc23)cn1 yielded an IC50 (second compound 0.0316 µM) of 2.95 µM, an IC50 (second compound 0.1 µM) of 3.68 µM and an IC50 (second compound 0.316 µM) of 2.08 µM. It also gave an IC50 (second compound 1 µM) of 2.33 µM, an IC50 (second compound 3.16 µM) of under 0.0316 µM and an IC50 (second compound 10 µM) of under 0.0316 µM. The viability, T/C [1] was 93.2%, the viability, T/C [2] was 101% and the viability, T/C [3] was 85.6%. For the same molecule, the viability, T/C [4] was 64.3%, the viability, T/C [5] was 53.1% and the viability, T/C [6] was 31.2%. For the same molecule, the viability, T/C [7] was 91.5%, the viability, T/C [8] was 103% and the viability, T/C [9] was 80.5%. It also gave a viability, T/C [10] of 66.5%, a viability, T/C [11] of 55.7% and a viability, T/C [12] of 36.3%. The viability, T/C [13] was 72.6%, the viability, T/C [14] was 79.3% and the viability, T/C [15] was 69.8%. It also gave a viability, T/C [16] of 56.1%, a viability, T/C [17] of 47.5% and a viability, T/C [18] of 35.2%. The viability, T/C [19] was 58%, the viability, T/C [20] was 69.4% and the viability, T/C [21] was 60.9%. For the same molecule, the viability, T/C [22] was 52.2%, the viability, T/C [23] was 49.6% and the viability, T/C [24] was 32%. It also gave a viability, T/C [25] of 41.5%, a viability, T/C [26] of 46.3% and a viability, T/C [27] of 42.7%. The viability, T/C [28] was 46%, the viability, T/C [29] was 39.5% and the viability, T/C [30] was 21.9%. It also gave a viability, T/C [31] of 36.8%, a viability, T/C [32] of 39.6% and a viability, T/C [33] of 36.3%. It also gave a viability, T/C [34] of 33.6%, a viability, T/C [35] of 20.2% and a viability, T/C [36] of 5.79%.
